Test results as given in patent US20110002969A1, “COSMETIC OR PHARMACEUTICAL COMPOSITIONS COMPRISING METALLOPROTEINASE INHIBITORS” (LIPOTEC, S.A., priority 2008, published 2011).
“And” between values parts separate entries of the source, which are not always exact repeats. Equal values may be shown once.

What was measured:
Assay type in all cases: biochemical
[1] = system: type IV collagenase; test: Collagenase inhibition trial (EnzChek Gelatinase/Collagenase Assay Kit, DQ Gelatin fluorescence); conditions: peptides at 2 mg/mL, preincubated 1 hour with 0.1 unit/mL type IV collagenase; DQ Gelatin 25 μg/mL, 2 hours; normalized to medium basal values
Procedure: Peptides were resuspended in water in the presence of 0.5% DMSO. The trial was carried out in black microplates having 96 well and the EnzChek®Gelatinase/Collagenase Assay Kit (Molecular Probes) was used. To that end, peptides were preincubated at 2 mg/mL during 1 hour with 0.1 unit/mL of type IV collagenase at room temperature with moderate agitation, after said time fluorescein conjugated substrate (DQ™ Gelatin) was added to a final concentration of 25 μg/mL and reactions were incubated for 2 hours at room temperature with agitation and protected from light. The substrate, whose flourescence is inhibited, is […] collagenase releasing flourescent fragments, monitored by florescence with a FLUOstar galaxy reader (BMG LabTechnologies), using 485 nm filters for excitation and 520 nm for emission.
Table 2 details those peptides whose collagenase inhibition values are higher than 25%. Inhibition values were normalized with respect to medium inhibition basal values.

[2] = biological target: T1, Human MMP-2 (Homo sapiens, UniProt P08253); test: Human MMP inhibition, DQ Gelatin fluorescence; conditions: peptides 0.5 mM, activated protease 0.35 μg/mL, 1 hour preincubation; DQ Gelatin 25 μg/mL, 16 hours; normalized to control fluorescence; in % (unit assumed)
T1 sequence (P08253 110-660): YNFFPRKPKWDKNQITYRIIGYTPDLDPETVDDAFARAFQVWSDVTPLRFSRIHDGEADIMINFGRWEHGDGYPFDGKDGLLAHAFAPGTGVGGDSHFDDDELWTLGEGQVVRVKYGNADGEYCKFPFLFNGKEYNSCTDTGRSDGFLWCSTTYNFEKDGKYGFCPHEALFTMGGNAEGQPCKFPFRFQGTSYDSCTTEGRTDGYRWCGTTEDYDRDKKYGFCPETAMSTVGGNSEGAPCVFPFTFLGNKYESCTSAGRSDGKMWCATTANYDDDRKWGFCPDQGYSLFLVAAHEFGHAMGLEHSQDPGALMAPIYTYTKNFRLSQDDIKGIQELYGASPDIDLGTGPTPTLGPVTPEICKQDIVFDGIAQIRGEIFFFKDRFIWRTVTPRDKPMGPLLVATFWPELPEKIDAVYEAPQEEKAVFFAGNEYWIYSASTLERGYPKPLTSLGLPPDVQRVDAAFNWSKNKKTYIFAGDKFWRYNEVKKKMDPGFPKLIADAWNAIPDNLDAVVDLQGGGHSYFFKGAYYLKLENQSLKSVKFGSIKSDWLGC
Procedure: (§1) Human MMPs were reconstructed in 50 mM Tris-HCl, 150 mM NaCl, 5 mM CaCl2, 0.2 mM NaN3 at a 7.6 pH and activated by reaction with 10 mM of 4-aminophenylmercuric acetate (dissolved in 0.01M NaOH) at a 10:1 to 37° C. ratio for 4-6 h. Activated proteases (0.35 μg/mL) were preincubated with peptides to a final 0.5 mM concentration in a 96-well black microplate for 1 hour at room temperature. After preincubation, 25 μg/mL substrate (DQ™ Gelatin) were added to the wells and samples were incubated for 16 hours at room temperature and protected against the light. Released flourescence by marked gelatin digestion was measured with an automated multiplate fluorescence reader, exciting at 485 nm and reading at 520 nm.
(§2) The results were corrected from basal flourescent value in MMP and product absence and normalized with respect to control fluorescence. Table 3 details the best inhibition values for peptides.

[3] = biological target: Human MMP-9 (Homo sapiens, UniProt P14780); test: Human MMP inhibition, DQ Gelatin fluorescence; conditions: peptides 0.5 mM, activated protease 0.35 μg/mL, 1 hour preincubation; DQ Gelatin 25 μg/mL, 16 hours; normalized to control fluorescence; in % (unit assumed)
Human MMP-9, sequence (P14780 107-707 limits assumed): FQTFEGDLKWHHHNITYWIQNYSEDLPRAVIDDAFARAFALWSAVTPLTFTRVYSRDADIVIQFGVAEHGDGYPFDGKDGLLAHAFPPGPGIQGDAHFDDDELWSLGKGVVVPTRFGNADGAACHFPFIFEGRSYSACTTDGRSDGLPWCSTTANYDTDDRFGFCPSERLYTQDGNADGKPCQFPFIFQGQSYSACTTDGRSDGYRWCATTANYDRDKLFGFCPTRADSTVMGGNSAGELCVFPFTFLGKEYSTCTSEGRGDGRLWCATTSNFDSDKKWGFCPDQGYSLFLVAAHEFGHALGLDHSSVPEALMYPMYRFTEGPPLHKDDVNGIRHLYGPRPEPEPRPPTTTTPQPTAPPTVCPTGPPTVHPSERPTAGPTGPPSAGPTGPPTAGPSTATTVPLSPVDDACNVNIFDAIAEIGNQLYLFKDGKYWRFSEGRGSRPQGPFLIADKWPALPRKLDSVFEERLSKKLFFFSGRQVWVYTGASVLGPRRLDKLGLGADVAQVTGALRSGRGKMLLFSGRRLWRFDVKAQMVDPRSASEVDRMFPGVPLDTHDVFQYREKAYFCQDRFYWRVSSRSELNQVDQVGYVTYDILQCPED
Procedure: as §1, §2

[4] = biological target: T2, Human MMP-1 (Homo sapiens, UniProt P03956); test: Human MMP inhibition, DQ Gelatin fluorescence; conditions: peptides 0.5 mM, activated protease 0.35 μg/mL, 1 hour preincubation; DQ Gelatin 25 μg/mL, 16 hours; normalized to control fluorescence
T2 sequence (P03956 100-469): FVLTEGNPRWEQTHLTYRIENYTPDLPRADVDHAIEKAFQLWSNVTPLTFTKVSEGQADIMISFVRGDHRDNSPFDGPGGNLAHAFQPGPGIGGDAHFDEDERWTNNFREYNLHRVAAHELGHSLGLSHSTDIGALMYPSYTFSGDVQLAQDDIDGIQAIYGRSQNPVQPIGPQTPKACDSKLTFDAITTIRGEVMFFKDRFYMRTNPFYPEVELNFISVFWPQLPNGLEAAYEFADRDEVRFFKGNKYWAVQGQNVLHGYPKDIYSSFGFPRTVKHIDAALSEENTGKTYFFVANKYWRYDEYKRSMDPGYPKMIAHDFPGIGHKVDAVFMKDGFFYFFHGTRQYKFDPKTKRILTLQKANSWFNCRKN
Procedure: as §1, §2

[5] = biological target: Human MMP-3 (Homo sapiens, UniProt P08254); test: Human MMP inhibition, DQ Gelatin fluorescence; conditions: peptides 0.5 mM, activated protease 0.35 μg/mL, 1 hour preincubation; DQ Gelatin 25 μg/mL, 16 hours; normalized to control fluorescence
Human MMP-3, sequence (P08254 100-477): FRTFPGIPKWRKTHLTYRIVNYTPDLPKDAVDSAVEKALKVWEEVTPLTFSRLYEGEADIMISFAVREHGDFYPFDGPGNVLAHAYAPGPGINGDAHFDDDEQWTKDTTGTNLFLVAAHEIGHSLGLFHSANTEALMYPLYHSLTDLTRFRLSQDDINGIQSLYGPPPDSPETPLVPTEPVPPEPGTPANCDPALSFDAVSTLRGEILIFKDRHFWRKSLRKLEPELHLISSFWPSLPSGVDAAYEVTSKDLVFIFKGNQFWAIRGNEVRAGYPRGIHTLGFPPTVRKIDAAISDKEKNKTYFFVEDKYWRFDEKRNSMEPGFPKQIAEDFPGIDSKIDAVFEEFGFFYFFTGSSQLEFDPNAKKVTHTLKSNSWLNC
Procedure: as §1, §2

Substance	Collagenase activity inhibition percentage [1]	MMP-2 inhibition value [2]	MMP-9 inhibition value [3]	MMP-1 inhibition value [4]	MMP-3 inhibition value [5]
Ac-L-Ara-L-His-L-His-L-Cit-CONH-(CH2)15-CH3	55.4%				
Ac-L-Arg-L-Asn-L-Arg-L-Cit-OH	58.9%	78.7 and 95.3	69.5 and 89.6		
Ac-L-Arg-L-Asn-L-His-L-Cit-CONH-(CH2)15-CH3	26.8%				
Ac-L-Arg-L-His-L-Arg-L-Cit-OH	60.5%				
Ac-L-Arg-L-His-L-His-L-Cit-OH	60.6%	101.4	63.1	34.7%	39.1%
H-L-Arg-L-Asn-L-His-L-Cit-OH	26.8%				
Palm-L-Arg-L-Asn-L-Arg-L-Cit-NH2	31.3%				
Palm-L-Arg-L-His-L-His-L-Cit-NH2	36.7%				
